Laboratory results reported in US10463685B2, “Telomerase mediated telomere altering compounds” (The Board of Regents of The University of Texas System, priority 2013, dated 2019).
Read-outs that look alike come from different tables or passages of the source. [tNP] = thio-phosphoramidate internucleoside linkage; {Palm} = palmitoyl group

Assays:
HCT116 cells [1] = experiment: Telomere length assay (TRF), long-term culture; type: cell-based, human
Protocol: (§1) For long-term cellular experiments, HCT116 (1,000 cells/cm^2) and BJ (10,000 cells/cm^2) cells were fed with 6-thio-dG (1, 3, 10 μM) containing medium every three days. The cells were counted and replated every week for 10-16 weeks. Additionally, HCT116 cells (1,000 cells/cm^2) were fed with 6-thio-G (1, 3, 10 μM) every three days and each week cells were counted, collected for TRF (Telomere Restriction Fragment) analysis and replated. HCT116 cells, following treatment with 10 μM 6-thio-dG for 12 weeks, were then treated with a combination of 10 μM 6-thio-dG and […] GRN163L for 2-4 weeks.
1×10^6 cells were collected and washed with PBS. DNA was isolated using the manufacturer's instructions (Qiagen, Valencia, Calif.). 2.5 μg DNA was digested with six different restriction enzymes (HhaI, HinfI, MspI, HaeIII, RsaI, AluI) (New England Bio, Ipswich, Mass.) and incubated at 37° C. overnight. Digested DNA was separated on a 0.7% agarose gel overnight at 70 V. The terminal restriction fragment (TRF) gel was denatured for 20 min in denaturating solution (0.5 M NaOH, 1.5 M NaCl, pH 13.2) and dried on Whatman 3 MM paper under vacuum for 3 hours at 56° C. The gel was neutralized for 15 minutes in neutralization buffer (1.5 M NaCl, 0.5 M Tris-HCl, pH 8.0) and then probed with a radiolabeled telomeric probe (C-rich) for 16 hours at 42° C. in 5×SSC buffer, 5×Denhardt's solution, 10 mmol/L Na2HPO4, and 1 mmol/L Na2H2P2O7. The gel was washed once with 2×SSC, 0.1% SDS, twice with 0.5×SSC, 0.1% SDS and then twice with 0.5×SSC, 1% SDS at room temperature for 15 min. Gels were exposed to a PhosphorImager screen overnight and analyzed using a Typhoon PhosphorImager scanner system (Molecular Dynamics).
To determine if 6-thio-dG and 6-thio-G causes progressive telomere shortening, telomere lengths of treated cells were evaluated by TRF assay. Cancer HCT116 and normal BJ fibroblast cells were treated with 1 μM or 10 μM of 6-thio-dG for 1-12 weeks every 3 days. In addition, HCT116 cells were also treated with 1 μM or 10 μM 6-thio-G for 1-10 weeks every 3 days to determine if there is any effect of this molecule on telomeric length maintenance. The control was untreated. Each week samples were collected for TRF analysis at 1×10^6 cells/sample at 1, 5, and 12 weeks for cells treated with 6-thio-dG and 1, 5, and 10 for cells treated with 6-thio-G.
HCT116 cells were treated with either 10 μM 6-thio-dG alone for 12-16 weeks, or with 3 μM GRN163L alone for 11 weeks. Then, these long term 6-thio-dG treated surviving cells were cultured with a combination of 6-thio-dG (10 μM) and/or GRN163L (3 μM) for 2-4 additional weeks. […] Specifically, the HCT116 cells were treated beyond the 12 weeks of 6-thio-dG treatment with either GRN163L only or GRN163L+6-thio-dG, for an additional 2 and 4 weeks to determine if there is an effect on telomere length.

BJ fibroblast cells = experiment: Telomere length assay (TRF), long-term culture; type: cell-based, human; conditions: BJ fibroblasts, 10 weeks
Protocol: as §1
1×10^6 cells were collected and washed with PBS. DNA was isolated using the manufacturer's instructions (Qiagen, Valencia, Calif.). 2.5 μg DNA was digested with six different restriction enzymes (HhaI, HinfI, MspI, HaeIII, RsaI, AluI) (New England Bio, Ipswich, Mass.) and incubated at 37° C. overnight. […] Gels were exposed to a PhosphorImager screen overnight and analyzed using a Typhoon PhosphorImager scanner system (Molecular Dynamics).
To determine if 6-thio-dG and 6-thio-G causes progressive telomere shortening, telomere lengths of treated cells were evaluated by TRF assay. […]

[2] = tested on: A549 human lung cancer cells; experiment: Tumor growth in xenograft animal model; type: in vivo, mice; conditions: 2.5 mg/kg every day
Protocol: Doses of 2.5 mg/kg of 6-thio-dG and 2.5 mg/kg of 6-thio-G were injected every day into mice after tumor implantation and providing time for tumor initiation. DMSO injections were used for the control. The volume of the tumor was measured.

[3] = type: in vivo
Protocol: Six WT mice were treated with 1.67 mg of 6-thio-dG/kg of body weight daily. Six WT mice were treated with 1.67 mg of 6-thio-G/kg of body weight daily. Six WT mice were treated with 5 mg of 6-thio-dG/kg of body weight daily. Six WT mice were treated with 5 mg of 6-thio-G/kg of body weight daily. The mice were given the appropriate dosage and weighed daily for 25 days. […] In comparison, the mice receiving 6-thio-G at the same dose lost between 1-2 grams (6-12% of initial weight) over the course of the 25 day treatment. […] In comparison, the mice receiving 6-thio-G at the same dose loss around 2 grams and all mice died by the 15th day of treatment.

HCT116 cells [4] = experiment: Cell count and morphology after one week of treatment; type: cell-based, human; conditions: 3 μM, twice during one week
Description: HCT116 represents a human colon cancer cells, A549 models human lung epithelial cancer cells, H2882 models human lung epithelial cancer cells, HCC2429 models human lung epithelial cancer cells, HCC827 models human lung epithelial cancer cells, HCC15 models human lung epithelial cancer cells, H2087 models human lung epithelial cancer cells, HCC4017 models human lung epithelial cancer cells, HCC515 models human lung epithelial cancer cells, H2009 models human lung epithelial cancer cells, BJ-hTERT cells model telomerase expressing normal human fibroblast cells, and BJ human fibroblasts (telomerase silent) were grown in a Media X (Hyclone, Logan, Utah) supplemented with 10% cosmic calf serum (Hyclone).
Cancer HCT116 and normal BJ fibroblast cells were treated with 6-thio-dG (3 μM) and 6-thio-G (3 μM) twice during one week. Following one week of the treatment, cell morphology was monitored, and then the cells were collected and counted.

HCT116 cells [5] = experiment: TIF assay, gamma-H2AX and TRF2 immuno-staining; type: cell-based, human; conditions: HCT116, 3 μM
Protocol: Briefly, HCT116 cells were plated in 4-well chamber slides and after the cells attached to the surface, either 3 μM 6-thio-dG or 3 μM 6-thio-G was added to the medium at different time points (0, 30 min, 12 h, 24 h, 48 h, 72 h). […] TIFs were quantified using Imaris software.
Cancer HCT116 cells were seeded in chamber slides. Following cell attachment, 6-thio-dG (3 μM) and 6-thio-G (3 μM) were added to fresh medium at various time points (0, 30 min, 2 h, 12 h, 24 h, 48 h, 72 h). To test if 6-thio-dG and 6-thio-G cause telomere dysfunction in cancer cells, TIF analysis was conducted. […] 6-thio-dG treatment causes a 2.8-fold increase in telomeric DNA damage as compared to 6-thio-G after 72 h (FIG. 4).

Toxicity testing in rats = type: in vivo; conditions: for mortality: rats
Protocol: Six rats were treated with 15 mg of 6-thio-dG/kg of body weight every two days. […] Another 5 rats were treated with 50 mg of 6-thio-dG/kg of body weight every other day. All rats died after 12 days.

Compound | telomere shortening (TRF) compared to the control (HCT116 cells [1]; HCT116, 3 μM alone, after 11 weeks) | telomere shortening compared with cells cultured with 6-thio-dG for 12, 14 and 16 weeks (HCT116 cells [1]; HCT116, after 12 weeks of 10 μM 6-thio-dG, additional 2 and 4 weeks of treatment) | telomere shortening (TRF) compared to untreated control (BJ fibroblast cells) | histology of the residual tumors [2] | mortality ([3]; WT mice, 5 mg/kg daily, by the 15th day of treatment) | weight lost ([3]; mouse, in vivo, 5 mg/kg) | cell count / cell death (HCT116 cells [4]) | telomere length on continued treatment (HCT116 cells [1]; HCT116, 10 μM, 12 weeks versus 16 weeks) | telomere shortening (TRF) (HCT116 cells [1]; HCT116, 1 or 10 μM every 3 days, one week and five weeks) | telomere length after return to medium without drug (HCT116 cells [1]; HCT116, 12 weeks 6-thio-dG, then no drug for 2-4 weeks) | genomic DNA damage compared to 6-thio-G (HCT116 cells [5]) | rate of tumor growth (tumor volume) compared to the control and 6-thio-G [2] | signs of impaired function in remaining animals (Toxicity testing in rats; rat, in vivo, 15 mg/kg) | mortality (Toxicity testing in rats; 15 mg/kg every two days, after 6 injections, six rats) | mortality (Toxicity testing in rats; 50 mg/kg every other day, after 12 days, 5 rats)
GRN163L: 13-mer thio-phophoramidate oligonucleotide 5′-TAGGGTTAGACAA-3′ with polmitoyl group at the 5′-end; direct competitive inhibitor of telomerase (all [tNP], 5' {Palm}, sugars by position and methylation of C not given here) [reference compound] | did not show any significant telomere shortening | increased telomere shortening | – | – | – | – | – | – | – | – | – | – | – | – | –
Nc1nc2nc[nH]c2c(=S)[nH]1 [6-thio-G, 6-thioguanine, reference compound] | – | – | did not show enhanced telomere shortening | mostly “healthy” growing cancerous cells | all mice died | around 2 grams | – | – | – | – | – | – | – | – | –
Nc1nc2c(ncn2[C@H]2C[C@H](O)[C@@H](CO)O2)c(=S)[nH]1 [6-thio-dG, 6-thio-deoxyguanosine] | – | – | did not show enhanced telomere shortening | mostly fibrotic and often associated with apoptotic and inflammatory cells | – | – | death of the vast majority of HCT116 cells | stabilized telomeres | telomere shortening was detectable | remained about the same | overall increase in genomic DNA damage | rate of tumor growth was less | no signs of impaired function | One rat died | All rats died
